{
  "source": "patent EP0289604A1",
  "about": "“2-METHYLMERCAPTO-3-CYANO-4-(O-DIFLUOROMETHOXYPHENYL)-6-PHENYL-1,4-DIHYDROPYRIDINE” (INSTITUT ORGANICHESKOGO SINTEZA AKADEMII NAUK LATVIISKOI SSR, priority 1986, dated 1988)",
  "key": {"[1]": {"tested_on": "spontan hypertensiven Ratten (SHR)", "assay": "Hypotensive effect in spontaneously hypertensive rats, single intragastric administration", "assay_type": "in vivo", "settings": "for Der hypotensive Effekt, % an SHR nach 48 Stunden: after 48 hours; for Dauer der hypotensiven Wirkung: single intragastric dose 10 mg/kg (similar dose for comparators), time over which the effect is detected or after which it ends"}, "[2]": {"tested_on": "spontan hypertensiven Ratten", "assay": "Hypotensive effect in spontaneously hypertensive rats, repeated intragastric administration for 10 days", "assay_type": "in vivo", "settings": "SHR"}, "in vivo": {"assay": "in vivo", "settings": "mouse, ip, white outbred mice, intraperitoneal administration"}, "[3]": {"assay": "Solubility and stability of the substance", "assay_type": "physicochemical", "experimental": "Die genannte Verbindung stellt eine kristalline Substanz vom 128 bis I30°C Schm.p. dar. […] Diese Verbindung ist sowohl in kristallinem Zustand als auch in Porm von Lösungen in organischen Lösungsmitteln stabil."}, "[4]": {"settings": "dose 10 mg/kg, single intragastric administration, after 6 hours"}, "[5]": {"settings": "dose 10 mg/kg, single intragastric administration"}},
  "data": [
    {"molecule": "CSC1=C(C#N)C(c2ccccc2OC(F)F)C=C(c2ccccc2)N1", "note": "(stereo not shown) [Die erfindungsgemässe Verbindung, 2-Methylmerkapto-3-zyano-4-(o-difluormethoxyphenyl)-6-phenyl-I,4-dihydropyridin]", "values": [
      {"measurement": "Der hypotensive Effekt, % an SHR nach 6 Stunden", "setting": "[1]; [4]", "value": 24, "unit": "%"},
      {"measurement": "Der hypotensive Effekt, % an SHR nach 48 Stunden", "setting": "[1]; [5]", "value": 6, "unit": "%"},
      {"measurement": "Dauer der hypotensiven Wirkung", "setting": "[1]", "value": "≤ 48", "unit": "Stunden"},
      {"measurement": "systolische Blutdruck herabgesetzt", "setting": "[1]; single intragastric dose 10 mg/kg, after 6 hours", "value": 21, "unit": "%"},
      {"measurement": "Effekt der Senkung des systolischen arteriellen Blutdrucks, Zeit nach der Einführung", "setting": "[1]; single intragastric dose 10 mg/kg, onset of effect", "value": 30, "unit": "Minuten"},
      {"measurement": "systolische Blutdruck herabgesetzt zum 10. Einführungstag", "setting": "[2]; 10 mg/kg intragastric once daily for 10 days", "value": 26, "unit": "%"},
      {"measurement": "arterielle Blutdruck erreichte das Ausgangsniveau nach dem Aufhören der Einführung", "setting": "[2]; after stopping 10 mg/kg intragastric once daily for 10 days", "value": "≤ 3", "unit": "Tagen"},
      {"measurement": "LD50", "setting": "in vivo", "value": "> 5000", "unit": "mg/kg"},
      {"measurement": "Stabilität", "setting": "[3]; in crystalline state and as solutions in organic solvents", "value": "stabil"},
      {"measurement": "Löslichkeit in Methyl-, Äthylalkohol, Azeton, Chloroform", "setting": "[3]; organic solvents", "value": "gut löslich"},
      {"measurement": "Löslichkeit in Wasser", "setting": "[3]; water", "value": "praktisch unlöslich"}
    ]},
    {"molecule": "COC(=O)C1=C(C)NC(C)=C(C(=O)OC)C1c1ccccc1[N+](=O)[O-]", "note": "[Nifedipine, 2,6-Dimethyl-3,5-dimethoxykarbonyl-4-(o-nithophenyl)-I,4-di-hydropyridin, reference compound]", "values": [
      {"measurement": "Der hypotensive Effekt, % an SHR nach I Stunden", "setting": "[1]; dose 10 mg/kg, single intragastric administration, after 1 hour", "value": 34, "unit": "%"},
      {"measurement": "Der hypotensive Effekt, % an SHR nach 6 Stunden", "setting": "[1]; [4]", "value": 23, "unit": "%"},
      {"measurement": "Der hypotensive Effekt, % an SHR nach 24 Stunden", "setting": "[1]; dose 10 mg/kg, single intragastric administration, after 24 hours", "value": 0, "unit": "%"},
      {"measurement": "Der hypotensive Effekt, % an SHR nach 48 Stunden", "setting": "[1]; [5]", "value": 0, "unit": "%"},
      {"measurement": "Dauer der hypotensiven Wirkung", "setting": "[1]", "value": 6, "unit": "Stunden"}
    ]}
  ]
}
